Assays:
PIM1 = PIM1 (Homo sapiens, UniProt P11309); details: binder
RIPK2 = RIPK2 (Homo sapiens, UniProt O43353); details: binder
BMPR2 = BMPR2 (Homo sapiens, UniProt Q13873); details: binder
CLK1 (full-length) = CLK1 (full-length) (Homo sapiens, UniProt P49759, V324A); assay: cell-based; design: species or system HEK293T
LATS1 = LATS1 (Homo sapiens, UniProt O95835); details: binder
STK32C = STK32C (Homo sapiens, UniProt Q86UX6); details: binder
CAMK2D = CAMK2D (Homo sapiens, UniProt Q13557); details: binder
CDKL3 = CDKL3 (Homo sapiens, UniProt Q8IVW4); details: binder
CAMKK1 = CAMKK1 (Homo sapiens, UniProt Q8N5S9); details: binder
PBK = PBK (Homo sapiens, UniProt Q96KB5); details: binder
NEK11 = NEK11 (Homo sapiens, UniProt Q8NG66); details: binder
STK40 = STK40 (Homo sapiens, UniProt Q8N2I9); details: binder
PRKG2 = PRKG2 (Homo sapiens, UniProt Q13237); details: binder
TEC = TEC (Homo sapiens, UniProt P42680); details: binder
TLK1 = TLK1 (Homo sapiens, UniProt Q9UKI8); details: binder
SIK1 = SIK1 (Homo sapiens, UniProt P57059); details: binder
ADRBK1 = ADRBK1 (Homo sapiens, UniProt P25098); details: binder
SgK223 = SgK223 (Homo sapiens, UniProt Q86YV5); details: binder

Chain of PBK (Q96KB5 whole entry): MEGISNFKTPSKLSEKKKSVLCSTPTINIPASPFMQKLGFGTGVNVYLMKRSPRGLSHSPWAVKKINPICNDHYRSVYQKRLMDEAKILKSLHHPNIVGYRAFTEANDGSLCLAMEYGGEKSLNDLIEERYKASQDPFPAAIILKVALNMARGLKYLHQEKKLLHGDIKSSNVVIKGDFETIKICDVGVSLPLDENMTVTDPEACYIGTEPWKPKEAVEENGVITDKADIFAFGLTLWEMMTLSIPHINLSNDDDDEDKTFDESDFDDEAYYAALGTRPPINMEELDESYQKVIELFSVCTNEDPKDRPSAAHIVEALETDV
Chain of BMPR2 (Q13873 whole entry): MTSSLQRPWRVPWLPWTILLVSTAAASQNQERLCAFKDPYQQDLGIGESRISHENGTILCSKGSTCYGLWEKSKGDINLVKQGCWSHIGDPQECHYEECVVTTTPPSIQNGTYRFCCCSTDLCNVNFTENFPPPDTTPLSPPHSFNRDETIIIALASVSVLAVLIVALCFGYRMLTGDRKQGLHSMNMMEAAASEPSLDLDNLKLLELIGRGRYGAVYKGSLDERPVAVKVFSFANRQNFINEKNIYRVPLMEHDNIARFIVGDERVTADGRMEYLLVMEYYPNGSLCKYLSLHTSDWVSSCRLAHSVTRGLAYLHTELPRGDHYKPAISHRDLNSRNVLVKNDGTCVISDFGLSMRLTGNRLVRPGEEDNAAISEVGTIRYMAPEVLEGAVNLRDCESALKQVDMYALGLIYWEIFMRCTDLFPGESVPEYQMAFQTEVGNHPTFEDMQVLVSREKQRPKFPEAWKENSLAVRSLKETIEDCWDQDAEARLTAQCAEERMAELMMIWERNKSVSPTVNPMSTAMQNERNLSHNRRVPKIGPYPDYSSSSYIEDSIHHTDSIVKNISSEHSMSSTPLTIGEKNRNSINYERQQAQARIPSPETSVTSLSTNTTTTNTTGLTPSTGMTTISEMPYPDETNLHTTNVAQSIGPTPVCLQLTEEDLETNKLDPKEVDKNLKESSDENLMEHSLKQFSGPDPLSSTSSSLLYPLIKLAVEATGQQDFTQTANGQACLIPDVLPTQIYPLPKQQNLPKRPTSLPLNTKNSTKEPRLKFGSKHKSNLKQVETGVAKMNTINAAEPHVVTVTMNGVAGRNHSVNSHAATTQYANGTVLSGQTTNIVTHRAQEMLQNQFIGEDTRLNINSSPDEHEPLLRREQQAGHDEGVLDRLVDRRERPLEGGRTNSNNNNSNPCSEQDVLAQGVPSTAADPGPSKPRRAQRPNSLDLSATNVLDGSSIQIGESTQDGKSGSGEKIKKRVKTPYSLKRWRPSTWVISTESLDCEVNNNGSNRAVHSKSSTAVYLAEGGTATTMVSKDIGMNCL
Chain of LATS1 (O95835 whole entry): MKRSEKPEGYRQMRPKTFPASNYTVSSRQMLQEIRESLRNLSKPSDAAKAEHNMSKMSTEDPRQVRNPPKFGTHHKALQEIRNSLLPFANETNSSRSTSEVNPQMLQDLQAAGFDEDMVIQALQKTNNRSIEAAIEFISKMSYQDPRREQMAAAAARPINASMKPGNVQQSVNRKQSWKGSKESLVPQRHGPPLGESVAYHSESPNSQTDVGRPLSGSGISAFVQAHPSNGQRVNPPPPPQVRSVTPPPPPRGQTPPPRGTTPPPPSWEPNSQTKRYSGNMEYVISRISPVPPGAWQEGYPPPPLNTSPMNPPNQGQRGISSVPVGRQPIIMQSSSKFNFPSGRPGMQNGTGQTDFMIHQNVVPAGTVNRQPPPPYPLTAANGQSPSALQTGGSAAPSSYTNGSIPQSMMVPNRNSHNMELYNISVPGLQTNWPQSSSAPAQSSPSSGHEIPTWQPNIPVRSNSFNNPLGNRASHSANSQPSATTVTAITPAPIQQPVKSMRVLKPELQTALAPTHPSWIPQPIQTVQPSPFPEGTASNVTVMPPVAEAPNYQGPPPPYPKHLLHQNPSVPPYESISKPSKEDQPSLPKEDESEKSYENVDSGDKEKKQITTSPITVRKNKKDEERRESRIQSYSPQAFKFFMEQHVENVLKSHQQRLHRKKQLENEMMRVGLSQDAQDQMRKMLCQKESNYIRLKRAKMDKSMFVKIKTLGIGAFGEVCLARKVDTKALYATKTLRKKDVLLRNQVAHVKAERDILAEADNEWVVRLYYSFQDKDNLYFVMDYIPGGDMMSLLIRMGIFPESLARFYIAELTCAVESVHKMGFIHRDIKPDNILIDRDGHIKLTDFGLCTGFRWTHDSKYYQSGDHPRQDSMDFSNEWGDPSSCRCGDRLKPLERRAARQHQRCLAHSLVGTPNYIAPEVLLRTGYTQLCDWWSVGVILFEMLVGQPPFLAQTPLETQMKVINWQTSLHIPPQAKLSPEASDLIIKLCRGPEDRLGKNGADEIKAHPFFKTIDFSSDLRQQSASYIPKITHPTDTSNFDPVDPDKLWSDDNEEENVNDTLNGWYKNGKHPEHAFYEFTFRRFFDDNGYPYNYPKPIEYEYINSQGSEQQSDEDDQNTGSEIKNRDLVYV
Chain of NEK11 (Q8NG66 whole entry): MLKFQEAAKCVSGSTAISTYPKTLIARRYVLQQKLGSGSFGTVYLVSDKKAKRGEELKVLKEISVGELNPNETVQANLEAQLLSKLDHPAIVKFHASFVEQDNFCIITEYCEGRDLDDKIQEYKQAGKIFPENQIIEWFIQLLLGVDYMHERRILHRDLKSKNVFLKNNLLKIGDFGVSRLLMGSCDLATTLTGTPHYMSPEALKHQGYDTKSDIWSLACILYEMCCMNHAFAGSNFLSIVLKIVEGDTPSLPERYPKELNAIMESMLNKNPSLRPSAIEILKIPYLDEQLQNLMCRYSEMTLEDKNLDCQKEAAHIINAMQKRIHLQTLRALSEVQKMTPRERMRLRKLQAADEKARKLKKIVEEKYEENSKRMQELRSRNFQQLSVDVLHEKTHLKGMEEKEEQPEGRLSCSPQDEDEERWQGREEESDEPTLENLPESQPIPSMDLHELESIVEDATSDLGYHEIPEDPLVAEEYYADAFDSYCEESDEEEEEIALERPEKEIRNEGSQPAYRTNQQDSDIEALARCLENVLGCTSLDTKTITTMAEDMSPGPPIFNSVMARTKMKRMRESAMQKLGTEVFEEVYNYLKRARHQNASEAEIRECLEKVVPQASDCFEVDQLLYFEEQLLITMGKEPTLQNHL
Chain of SIK1 (P57059 whole entry): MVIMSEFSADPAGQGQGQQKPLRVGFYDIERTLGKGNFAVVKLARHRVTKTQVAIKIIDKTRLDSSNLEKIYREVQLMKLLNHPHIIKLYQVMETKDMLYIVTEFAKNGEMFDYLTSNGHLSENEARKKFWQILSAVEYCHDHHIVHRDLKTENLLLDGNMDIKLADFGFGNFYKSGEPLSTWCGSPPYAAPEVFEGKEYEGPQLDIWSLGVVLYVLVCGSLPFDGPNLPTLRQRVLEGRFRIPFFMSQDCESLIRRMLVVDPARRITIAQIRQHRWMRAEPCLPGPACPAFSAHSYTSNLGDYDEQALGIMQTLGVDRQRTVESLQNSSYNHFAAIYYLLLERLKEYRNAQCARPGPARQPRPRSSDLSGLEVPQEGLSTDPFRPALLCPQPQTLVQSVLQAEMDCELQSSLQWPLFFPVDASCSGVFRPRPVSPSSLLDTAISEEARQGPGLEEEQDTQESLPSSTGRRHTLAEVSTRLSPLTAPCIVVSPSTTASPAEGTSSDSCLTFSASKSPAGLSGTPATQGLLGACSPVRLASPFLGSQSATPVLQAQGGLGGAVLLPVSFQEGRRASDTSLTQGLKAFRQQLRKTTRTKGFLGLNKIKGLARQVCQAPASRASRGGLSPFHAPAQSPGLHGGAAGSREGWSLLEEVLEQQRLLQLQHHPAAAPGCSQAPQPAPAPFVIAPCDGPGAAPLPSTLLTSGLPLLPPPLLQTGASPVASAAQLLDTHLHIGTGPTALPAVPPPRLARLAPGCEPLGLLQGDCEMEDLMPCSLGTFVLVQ
Chain of RIPK2 (O43353 whole entry): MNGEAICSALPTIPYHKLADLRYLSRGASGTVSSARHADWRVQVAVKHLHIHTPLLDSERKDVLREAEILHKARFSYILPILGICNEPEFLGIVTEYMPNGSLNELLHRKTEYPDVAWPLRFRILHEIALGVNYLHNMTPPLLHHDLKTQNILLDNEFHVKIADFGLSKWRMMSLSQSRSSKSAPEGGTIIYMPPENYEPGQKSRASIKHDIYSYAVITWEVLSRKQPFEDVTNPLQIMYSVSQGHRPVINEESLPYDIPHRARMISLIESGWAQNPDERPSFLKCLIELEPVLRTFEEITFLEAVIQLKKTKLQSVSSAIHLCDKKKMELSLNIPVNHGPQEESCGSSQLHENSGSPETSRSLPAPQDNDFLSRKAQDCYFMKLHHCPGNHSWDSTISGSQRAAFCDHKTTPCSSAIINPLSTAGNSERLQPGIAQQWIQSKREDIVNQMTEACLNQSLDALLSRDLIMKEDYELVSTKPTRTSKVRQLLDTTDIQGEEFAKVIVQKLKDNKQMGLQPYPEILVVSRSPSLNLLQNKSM
Chain of CLK1 (full-length) (P49759 whole entry V324A): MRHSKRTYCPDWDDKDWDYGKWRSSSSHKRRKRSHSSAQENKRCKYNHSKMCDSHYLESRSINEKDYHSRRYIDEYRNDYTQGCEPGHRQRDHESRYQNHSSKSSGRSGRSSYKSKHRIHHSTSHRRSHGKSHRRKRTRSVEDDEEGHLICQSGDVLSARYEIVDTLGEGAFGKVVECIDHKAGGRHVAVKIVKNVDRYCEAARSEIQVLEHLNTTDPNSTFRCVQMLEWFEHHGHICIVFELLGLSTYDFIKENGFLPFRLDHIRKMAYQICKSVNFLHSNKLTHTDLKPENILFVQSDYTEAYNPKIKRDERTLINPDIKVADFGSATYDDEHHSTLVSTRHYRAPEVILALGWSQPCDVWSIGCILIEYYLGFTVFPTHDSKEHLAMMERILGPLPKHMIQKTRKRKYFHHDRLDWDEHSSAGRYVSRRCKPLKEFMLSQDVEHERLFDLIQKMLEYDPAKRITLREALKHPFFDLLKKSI

Compound: CC(=O)c1cccc(-c2cnc3ccc(NCC4CC4)nn23)c1 [compound 1, K00135]
- ΔTm inhibitor 1 (PIM1): 6.3 °C
- ΔTm inhibitor 1 (RIPK2): 6.0 °C
- ΔTm inhibitor 1 (BMPR2): 7.8 °C
- Ki (CLK1 (full-length)): 0.512 ± 0.1 µM

Compound: CCN1/C(=C/C(C)=O)Sc2ccc(OC)cc21 [compound 2, TG003]
- ΔTm inhibitor 2 (LATS1): 0.1 °C
- ΔTm inhibitor 2 (STK32C): -0.9 °C
- ΔTm inhibitor 2 (CAMK2D): -0.6 °C
- ΔTm inhibitor 2 (CDKL3): 0.1 °C
- ΔTm inhibitor 2 (CAMKK1): 0.0 °C
- ΔTm inhibitor 2 (PBK): 0.5 °C
- ΔTm inhibitor 2 (NEK11): 0.6 °C
- ΔTm inhibitor 2 (STK40): 0.0 °C
- ΔTm inhibitor 2 (PRKG2): -0.1 °C
- ΔTm inhibitor 2 (TEC): 1.0 °C
- ΔTm inhibitor 2 (TLK1): -0.1 °C
- ΔTm inhibitor 2 (SIK1): 1.5 °C
- ΔTm inhibitor 2 (ADRBK1): 0.1 °C

Compound: Nc1nccc(-c2ccc3noc(-c4ccc(Cl)cc4)c3c2)n1 [compound 4, K00972]
- ΔTm inhibitor 4 (SgK223): 0.4 °C

Source: doi:10.1101/2020.07.01.182642v1 (biorxiv, 2020)
